Experimental data published in patent publication US6177475A, “Methods of using integrin modulators for treatment of inflammation” (priority 1997, dated 2001).
Where two headings read alike, the source gives them in different places.

Assays:
LFA-1 = assay: TPA-induced homotypic adhesion (aggregation) of peripheral blood leukocytes; assay type: cell-based, human; details: ~100 micromoles per liter Ajoene
Procedure: Normal human peripheral blood leukocytes (PBLS) were cultured for 5 days without stimulation in complete RPMI medium (Sigma Chemical Co., St. Louis, Mo.), washed, and resuspended at 9×10^6 cells/ml in the same medium. Fifty microliters of the cells were added in duplicate to wells containing 100 microliters of an Ajoene solution (50 micrograms/ml),anti-LFA-1 antibody (H52) solution (20 micrograms/ml), or vehicle controls. The plate was then incubated for 30 min at 37° C. before adding to each well 50 microliters of a solution of 12-O-tetradecanoyl 4-β-phorbol 13-acetate (TPA) to the final concentration of 125 ng/ml). The plate was incubated for 45 min at 37° C., followed by additional 10-min incubation at room temperature on a shaking platform. The cells were allowed to settle, and adhesion was quantitated by counting the number of free cells in random high-power fields in the duplicate wells. Following incubation with TPA, 75 to 90% of cells are typically found in large aggregates as a result of LFA-1 upregulation. TPA induced a 90% aggregation in PBLs that were preincubated with vehicle controls. […] This example provides conclusive evidence that, in addition to GP IIb/IIIa and VIA-4, Ajoene modulates the integrin LFA-1. […]

MT-4 cells = assay type: cell-based
HIV-1RF = HIV-1RF replication in H9 cells (HIV antigens by solid phase immunoassay); assay type: cell-based; details: Human immunodeficiency virus 1, m.o.i. 0.1, 72 h
VLA-4 (CS-1) = assay: VLA-4-dependent adhesion of Jurkat and MV3 cells to CS-1; assay type: cell-based, human; details: in this concentration range
Procedure: Microtiter plates were coated with ligands of the integrin VLA-4, i.e., recombinant human VCAM-1 (500 nanograms per well) or the fragment of connective segment of human fibronectin (CS-1), covalently attached to ovalbumin (5 micrograms per well) by overnight incubation (4° C.) with solutions of the proteins in phosphate-buffered saline (PBS). The plates were blocked with 1% bovine serum albumin (BSA) in Hanks' buffered salt solution (HBSS-BSA). The cells (Jurkat or human melanoma MV3) were labeled with the fluorescent dye 5-chloromethylfluorescein diacetate (CMFDA) and introduced into the wells of the plates (10^5 cells per well) together with varying amounts of Ajoene. After incubation at 37° C. for 1 h, the unbound cells were removed by aspiration and the wells washed four times with HBSS-BSA. Thereafter, the bound cells were lysed with 0.5% Triton X-100, and the fluorescence was measured using a Cytofluor 2300 plate reader. The number of adherent cells was calculated from a standard dilution curve of Triton X-100 lysates of the CMFDA-labeled cells.

[1] = system: MT-2 cells / K562/VCAM-1 cells (HTLV-I); assay: Syncytium formation of HTLV-I-infected MT-2 cells with K562/VCAM-1 cells; assay type: cell-based; details: Primate T-lymphotropic virus 1, MT2, 4 h
Text: MT-2 cells harbor the complete genome of human T cell lymphotropic virus type 1 (HTLV-I), and they transmit the virus to susceptible uninfected cells in cocultures. The transmission manifests itself as fusion of MT-2 cells with the uninfected cells, followed by syncytium formation. K562 cells transfected with VCAM-1, a ligand of the integrin VIA-4, were used as a fusion partner for MT-2 cells. MT-2 and K562/VCAM-1 cells were washed and resuspended in complete RPMI medium at a density of 2×10^6 /ml. MT2 cells were seeded into flat-bottom 96-well microtiter plates (100 microliters per well). Serial dilutions of Ajoene or of the disintegrin kistrin (final concentration) were introduced into the wells, and the plate was incubated for 30 min prior to addition of 100 microliters of K562/VCAM-1 cells. The plates were then incubated for 4 h before scoring syncytium formation.

[2] = system: H9RF cells / H9 cells (HIV-1RF); assay: HIV-induced syncytium formation, H9RF donor with H9 recipient; assay type: cell-based
Text: For curve 1, the effect of Ajoene on the fusion of cultured, intact H9 cells with HIV infected H9RF cells is disclosed. For this curve, the vertical graph axis pertains to the maximum amount of syncytia formed in the absence of Ajoene (100 percent), while the points on line 1 represent percentages of such an amount of syncytia formed in the presence of varying concentrations of Ajoene (micromoles per liter).
Chronically infected and uninfected cell lines (HIV donors and targets, respectively) were maintained as suspension cultures in RPNI-1640 medium supplemented with 10% (v/v) heat-inactivated fetal calf serum, 50 micrograms/ml gentamycin and 2 mM L-glutamine. HIV donors used were (1) a cloned population of H9 cells harboring the genome of HIV-1RF (H9RF cells); and (2) a cloned population of SupT1 cells harboring the genome of HIV-1LAV-BRU (SupT1LAV-BRU cells). To assess the effect of Ajoene on syncytium formation, the donors were mixed with their respective recipients, H9 and SupT1, at a ratio of 1:2 in 96-well flat-bottomed plates (3×10^5 cells per well). Log 10 dilutions of Ajoene were then introduced into the wells, and the cells were cocultured for 16 h. Control wells received the vehicle of Ajoene. By the end of the incubation period syncytia were counted, and the values of IC50 for Ajoene were calculated by plotting relative amounts of syncytia (percent of the syncytia formed in the absence of the compound) against Ajoene concentration.

HSV-2 strain G = assay: Herpes simplex virus infection of WI-38 fibroblasts (ELISA for HSV antigens); assay type: cell-based; details: Human alphaherpesvirus 2, WI-38, 24 hours
Procedure: The effect on herpes simplex virus (HSV) infection was assessed using human embryonic lung fibroblast line WI-38 and HSV-2 strain G (derived from a human with the genital infection). Semiconfluent fibroblast monolayers grown in 96-well culture plates (10^5 cells per well) were exposed to serial dilutions of Ajoene or vehicle control, followed immediately by addition of HSV-2 (5000 CCID50 per well). After 24 hours of culturing, the supernatants were examined by ELISA for the content of HSV antigens.

SMILES: C=CCSSC=CC[S+]([O-])CC=C (stereo not drawn) [Ajoene, 4,5,9-trithiadodeca-1,6,11-triene-9-oxide]
- inhibition of TPA-induced homotypic adhesion of PBLs (LFA-1): completely inhibited
- toxic effects on the cells (MT-4 cells): without any toxic effects on the cells
- IC50 (HIV-1RF): 25000 nM
- inhibition of adhesion to CS-1 (VLA-4 (CS-1)): no inhibition of adhesion to CS-1 could be detected
- IC50 ([1]; read-out: IC50 for syncytium formation): ~600 nM
- IC100 ([1]; read-out: IC100 for syncytium formation): 4.3 µM
- syncytia found (FIG. 1, curve 1) ([2]; 50 micromoles of Ajoene per liter): Essentially no syncytia were found
- IC50 ([2]; Human immunodeficiency virus 1, H9, 16 h incubation, both donor/recipient systems, read-out: IC50 range for fusion and syncytium formation): 5 to 50 nM
- IC50 ([2]; Human immunodeficiency virus 1, H9RF donor, H9 recipient, 16 h, read-out: IC50 of Ajoene, syncytium formation): ~50 nM
- IC50 ([2]; Human immunodeficiency virus 1, H9 with H9RF cells, read-out: IC50 of syncytium formation (FIG. 1, curve 1)): 45 nM
- IC50 (HSV-2 strain G): 6000 nM
- IC100 (HSV-2 strain G; read-out: concentration completely preventing HSV infection): 17 µM
